Experimental findings from patent publication US8242081B2, “Cell penetrating peptides for intracellular delivery of molecules” (Centre National de la Recherche Scientifique, priority 2005, dated 2012) are described below.

Like-named read-outs stand apart in the source and are kept apart here. Peptide text beside a SMILES is read from it.

One assay concerns HS-68 and Hela cells. Nature of the assay: Toxicity of CADY variants, MTT assay (Table 1). In kind it is cell-based, human. The protocol:
The toxicity of CADY peptides has been investigated on different cell lines. Cells were incubated in the presence of increasing concentrations of CADY (from 0.1 μM to 1 mM) for 12 hrs and cell viability was estimated using MTT assay.
The different CADY variants have been tested on HS-68 and Hela cells.
The lack of toxicity of CADY/cargo complexes can be directly associated to absence of free carrier peptide in the solution (FIG. 4B).

The subject of assay [1] is 5PC3 or Human H1299 adenocarcinoma cells. Put plainly: Intravenous injection of siRNA/CADY complexes, tumor mouse models. In kind it is in vivo, NCR nude mice. Conditions: only one injection, siRNA 10 μg. The protocol: Experiments were performed on two tumor mouse models.
(A) 1×10^6 5PC3 adenocarcinoma cells were injected subcutaneously into the flanks of NCR nude mice (day 1). siRNA/CADY-S complexes were obtained as described before at a ratio 1:20. CADY-S/siRNA complexes were injected intravenously at day 7. The size of the tumor was measured every day. Results correspond to the average of 5 different animals.
(B) 1×10^6 tumor cells expressing luciferase were injected intraperitoneally in the mice (4 to 8 week-old immune competent A/J female mices). Tumors were monitored using in vivo Imaging System (IVIS-Xenogen), which quantified total body bioluminescence after injection of D-luciferin. The tumor cells are visualized on three mice, each representative of one group (siRNA alone, CADY/siRNA complexes, and CADY-S/siRNA complexes).
The in vivo efficiency of CADY-S was then investigated, in order to determine if the cholesterol-modified form of CADY can improve siRNA delivery through intravenous injection and block tumor growth in vivo. Experiments were performed on two tumor mouse models, in which 5PC3 or Human H1299 adenocarcinoma cells were injected subcutaneously into the flanks of NCR nude mice.

For assay [2], the system named is Jurkat, WI-38, HS-68 and HeLa cells. Nature of the assay: CADY-2-mediated delivery of p27-derived peptides, cell arrest in G1 by FACS. In kind it is cell-based. The protocol: FIG. 12: The different p27-derived peptides were associated with CADY-2 at a molar ratio of 1/20, since it was determined that at this ratio, the average size of the particle is of about 100-200 nm in diameter. The formulations were obtained in phosphate buffer, using a fixed concentration of peptide of 1 μM. Cell lines were cultured in Dulbecco's Modified Eagle's Medium supplemented with 2 mM glutamine, 1% antibiotics (streptomycin 10'000 μg/ml, penicillin, 10'000 IU/ml) and 10% (w/v) fetal calf serum (FCS), at 37° C. in a humidified atmosphere containing 5% CO2. Cells were synchronized by serum privation during 40 hrs, and cultured in Dulbecco's Modified Eagle's Medium supplemented with 2 mM glutamine, 1% antibiotics. G1 synchronized cells were released upon serum addition, then overlaid with preformed CADY-2/peptide complexes. After 30 min incubation at 37° C., 1 ml of fresh DMEM supplemented with 10% fetal calf serum was added directly to the cells, without removing the overlay of CADY/peptide complexes, and cells were returned to the incubator. The level of cell arrest in G1 was analyzed by FACS 24 hrs after release.

For assay [3], the system named is Human H1299 adenocarcinoma cells. Nature of the assay: Effect of p1p27/CADY complexes on tumor growth in vivo, intratumoral injection. Also noted: species or system Swiss nude mice. The following applies: 5 weeks after injection, control experiments. As for the experimental part:
The tumor animal model consists of Swiss nude mice, injected subcutaneously with 2×10^7 Human H1299 adenocarcinoma cells. CADY2/p1p27 complex and free CADY-2 and peptides were injected directly into the tumor (100-300 μg) after 1 and 4 weeks. p1p27/CADY complexes were obtained as described before at a ratio 1/20. Controls were performed by injecting PBS, CADY alone, or naked p1p27 instead of the p1p27/CADY-2 complex. The size of the tumor volume was measured with calipers once a week. Results correspond to the average of 5 different animals.

[4] abbreviates: peptide delivered with CADY-2, ratio 1/20, 1 μM peptide, 24 hrs after release.

For `CC(=O)NCC(=O)N[C@@H](CC(C)C)C(=O)N[C@@H](Cc1c[nH]c2ccccc12)C(=O)N[C@@H](CCCNC(=N)N)C(=O)N[C@@H](C)C(=O)N[C@@H](CC(C)C)C(=O)N[C@@H](Cc1c[nH]c2ccccc12)C(=O)N[C@@H](CCCNC(=N)N)C(=O)N[C@@H](CC(C)C)C(=O)N[C@@H](CC(C)C)C(=O)N[C@@H](CCCNC(=N)N)C(=O)N[C@@H](CO)C(=O)N[C@@H](CC(C)C)C(=O)N[C@@H](Cc1c[nH]c2ccccc12)C(=O)N[C@@H](CCCNC(=N)N)C(=O)N[C@@H](CC(C)C)C(=O)N[C@@H](CC(C)C)C(=O)N[C@@H](Cc1c[nH]c2ccccc12)C(=O)N[C@@H](CCCCN)C(=O)N[C@@H](C)C(=O)NCCSS[C@H]1CC[C@@]2(C)C(=CC[C@H]3[C@@H]4CC[C@H]([C@H](C)CCCC(C)C)[C@@]4(C)CC[C@@H]32)C1` [CADY-S2] (HELM PEPTIDE1{[ac].G.L.W.R.A.L.W.R.L.L.R.S.L.W.R.L.L.W.K.A.[CC(C)CCC[C@@H](C)[C@H]1CC[C@H]2[C@@H]3CC=C4C[C@@H](SSCCN[*:1])CC[C@]4(C)[C@H]3CC[C@]12C]}$$$$V2.0), the EC50 with HS-68 and Hela cells (12 h) is 800 µM.
As for `CC(C)CCC[C@@H](C)[C@H]1CC[C@H]2[C@@H]3CC=C4C[C@@H](OC(=O)NCC(=O)N[C@@H](CC(C)C)C(=O)N[C@@H](Cc5c[nH]c6ccccc56)C(=O)N[C@@H](CCCNC(=N)N)C(=O)N[C@@H](C)C(=O)N[C@@H](CC(C)C)C(=O)N[C@@H](Cc5c[nH]c6ccccc56)C(=O)N[C@@H](CCCNC(=N)N)C(=O)N[C@@H](CC(C)C)C(=O)N[C@@H](CC(C)C)C(=O)N[C@@H](CCCNC(=N)N)C(=O)N[C@@H](CO)C(=O)N[C@@H](CC(C)C)C(=O)N[C@@H](Cc5c[nH]c6ccccc56)C(=O)N[C@@H](CCCNC(=N)N)C(=O)N[C@@H](CC(C)C)C(=O)N[C@@H](CC(C)C)C(=O)N[C@@H](Cc5c[nH]c6ccccc56)C(=O)N[C@@H](CCCCN)C(=O)N[C@@H](C)C(=O)NCCS)CC[C@]4(C)[C@H]3CC[C@]12C` [CADY-S] (HELM PEPTIDE1{[CC(C)CCC[C@@H](C)[C@H]1CC[C@H]2[C@@H]3CC=C4C[C@@H](OC(=O)[*:2])CC[C@]4(C)[C@H]3CC[C@]12C].G.L.W.R.A.L.W.R.L.L.R.S.L.W.R.L.L.W.K.A.[SCCN[*:1]]}$$$$V2.0), the tumor growth entry in assay [1] is “fully abolish the tumor growth”. In the assay on HS-68 and Hela cells (complexed with cargo (ratio 1/20), MTT, read-out: complexed EC50), the EC50 amounted to 1000 µM.
In the case of “NRTEENVSDGSPNAGSVEQTPKKPGLR [p2p27, p27-derived peptide used as a negative control, reference compound]”, the “cell cycle arrest in G1” value in assay [2] (setting [4]) was “no effect”.
With PSLERMDAR [pRXL], in assay [2] (pRXL with CADY strategy), the “efficiency compared with published TAT or Pen covalent based strategy” value is recorded as “at least 2 fold”. In assay [2] (setting [4]), the “cell cycle arrest in G1” value was “induced a cell cycle arrest in G1”.
For RVSNGSPSLERMDARQAEHPKPSACRNL [p1p27], the “cell cycle arrest in G1” value was “no effect” in assay [2] (carrier alone or free peptide) and “induced a cell cycle arrest in G1” in assay [2] (setting [4]). Besides, the “increase of tumor size” value in assay [3] was 5 fold.
